Residues, ends and D or L forms follow the SMILES beside them. *: point of attachment. FITC = O=C1OC2(c3ccc(O)cc3Oc3cc(O)ccc32)c2ccc(NC(=S)*)cc21
What was measured:
Assay type in all cases: ADME
Settings in all cases: 0.5 h
[1] = Drug distribution in Staphylococcus aureus 29213 assessed as red fluorescence signal at 1 time MIC concentration incubated for 30 mins in absence of light by Propidium iodide staining based assay
[2] = Drug distribution in Escherichia coli 25922 assessed as green fluorescence signal covered all the bacterial cell at 1 time MIC concentration incubated for 30 mins in absence of light by 3D-SIM super resolution microscopy
[3] = Drug distribution in Escherichia coli 25922 assessed as red fluorescence signal at 1 time MIC concentration incubated for 30 mins in absence of light by Propidium iodide staining based assay
[4] = Drug distribution in Staphylococcus aureus 29213 assessed as green fluorescence signal covered all the bacterial cell at 1 time MIC concentration incubated for 30 mins in absence of light by 3D-SIM super resolution microscopy

Measured: Drug uptake

CC(C)C[C@H](NC(=O)[C@H](CCCCN)NC(=O)CNC(=O)CNC(=O)[C@H](CCCCN)NC(=O)[C@H](CC(C)C)NC(=O)[C@H](Cc1c[nH]c2ccccc12)NC(=O)[C@H](CC(C)C)NC(=O)[C@H](CCCCN)NC(=O)CNC(=O)[C@H](C)NC(=O)[C@H](CCCCN)NC(=O)[C@H](CC(C)C)NC(=O)[C@H](Cc1c[nH]c2ccccc12)NC(=O)[C@H](CC(C)C)NC(=O)[C@H](CCCCN)NC(=O)CNC(=S)Nc1ccc2c(c1)C(=O)OC21c2ccc(O)cc2Oc2cc(O)ccc21)C(=O)N[C@@H](Cc1c[nH]c2ccccc12)C(=O)N[C@@H](CC(C)C)C(=O)N[C@@H](CCCCN)C(=O)NCC(N)=O ({FITC}-GKLWLKAGKLWLKGGKLWLKG-NH2)
Active: [1] | [2] | [3] | [4]

— ChEMBL document CHEMBL5518215, “Unlocking Antibacterial Potential: Key-Site-Based Regulation of Antibacterial Spectrum of Peptides” (J Med Chem, 2024)
